Test results published in patent US20190359756A1, “OPTICAL MEMBER FORMING COMPOSITION” (Mitsubishi Gas Chemical Company, Inc., priority 2016, published 2019).

Experiments:
Type in all cases: physicochemical
Film heat resistance = test: Film heat resistance; set-up: key: A: No defect in the film was visually observed.; C: Defects in the film were visually observed (including disappearance of the film); details: film baked at 110° C. for 5 minutes, visual observation
Method: (§1) The compound was dissolved at 5% by mass in propylene glycol methyl ether to prepare an optical member forming material. Next, a silicon substrate was spin coated with the optical member forming material, and then baked at 110° C. for 60 seconds to form an optical member forming film with a film thickness of 1000 nm.
The optical member forming film obtained as described above was baked at 110° C. for 5 minutes, and evaluation of film heat resistance was carried out according to the following criteria.
A: No defect in the film was visually observed.
C: Defects in the film were visually observed (including disappearance of the film).

[1] = Refractive index of optical member forming film (spectroscopic ellipsometer); details: wavelength 633 nm, film thickness 1000 nm, baked at 110° C. for 60 seconds
Method: as §1
(§2) Subsequently, the refractive index and transparency tests at a wavelength of 633 nm were conducted using a vacuum ultraviolet variable angle spectroscopic ellipsometer (VUV-VASE) manufactured by J. A. Woollam Co., Inc. The refractive index and the transparency were evaluated according to the following criteria.
A: The refractive index was 1.65 or more.
C: The refractive index was less than 1.65.

[2] = Transparency (absorption constant) of optical member forming film; details: wavelength 633 nm, film thickness 1000 nm, baked at 110° C. for 60 seconds
Method: as §1, §2
A: The absorption constant was less than 0.03.
B: The absorption constant was 0.03 or more and less than 0.05.
C: The absorption constant was 0.05 or more.

[3] = Solubility test in propylene glycol monomethyl ether acetate; details: 23° C., ultrasonic waves 30 minutes, amount of complete dissolution
Method: The solubility was evaluated by precisely weighing the compound into a test tube, adding propylene glycol monomethyl ether acetate at 23° C. so as to attain a predetermined concentration, applying ultrasonic waves for 30 minutes in an ultrasonic cleaner, then visually observing the subsequent state of the fluid, determining the concentration of the amount of complete dissolution, and conducting evaluation according to the following criteria.
A: 5.0% by mass Amount of dissolution
B: 3.0% by mass Amount of dissolution <5.0% by mass
C: Amount of dissolution <3.0% by mass

SMILES | Film heat resistance (Film heat resistance) | Refractive index [1] | Absorption constant [2] | Solubility [3]
Oc1ccc(C(c2ccc(-c3ccccc3)cc2)c2ccc(O)c(-c3ccccc3)c2)cc1-c1ccccc1 [BiP-1] | A | A (The refractive index was 1.65 or more.) | A (The absorption constant was less than 0.03.) | A (5.0% by mass Amount of dissolution)
Oc1ccc(-c2ccc(O)c(C(c3ccc(-c4ccccc4)cc3)c3cc(-c4ccc(O)cc4)ccc3O)c2)cc1 [BiP-2] | A | A (The refractive index was 1.65 or more.) | A (The absorption constant was less than 0.03.) | A (5.0% by mass Amount of dissolution)
Oc1ccc(C(c2ccc(-c3ccccc3)cc2)c2ccc(O)cc2O)c(O)c1 [Example P-5] | A | A (The refractive index was 1.65 or more.) | A (The absorption constant was less than 0.03.) | A (5.0% by mass Amount of dissolution)
Oc1ccc(C(c2ccccc2)c2ccc(O)cc2O)c(O)c1 [Example P-6] | A | A (The refractive index was 1.65 or more.) | A (The absorption constant was less than 0.03.) | A (5.0% by mass Amount of dissolution)
Oc1ccc(C(c2ccc(C3CCCCC3)cc2)c2ccc(O)cc2O)c(O)c1 [Example P-7] | A | A (The refractive index was 1.65 or more.) | A (The absorption constant was less than 0.03.) | A (5.0% by mass Amount of dissolution)
Oc1ccc2ccc3c(c2c1)C(c1ccc(-c2ccc(C4c5c(ccc6ccc(O)cc56)Oc5ccc6ccc(O)cc6c54)cc2)cc1)c1c(ccc2ccc(O)cc12)O3 [XBiN 3] | A | A (The refractive index was 1.65 or more.) | A (The absorption constant was less than 0.03.) | A (5.0% by mass Amount of dissolution)
CC(C)Cc1ccc(C2c3c(ccc4cc(O)ccc34)Oc3ccc4cc(O)ccc4c32)cc1 [XBisN 2] | A | A (The refractive index was 1.65 or more.) | A (The absorption constant was less than 0.03.) | A (5.0% by mass Amount of dissolution)
CCCc1ccc(C2c3c(ccc4cc(O)ccc34)Oc3ccc4cc(O)ccc4c32)cc1 [XBisN-3] | A | A (The refractive index was 1.65 or more.) | A (The absorption constant was less than 0.03.) | A (5.0% by mass Amount of dissolution)
Oc1ccc(C2c3c(ccc4cc(O)ccc34)Oc3ccc4cc(O)ccc4c32)cc1 [XBisN-4] | A | A (The refractive index was 1.65 or more.) | A (The absorption constant was less than 0.03.) | A (5.0% by mass Amount of dissolution)
Oc1ccc2c3c(ccc2c1)Oc1ccc2cc(O)ccc2c1C3c1ccc(C2CCCCC2)cc1 [XBisN-5] | A | A (The refractive index was 1.65 or more.) | A (The absorption constant was less than 0.03.) | A (5.0% by mass Amount of dissolution)
CC(C)Cc1ccc(C2c3c(ccc4ccc(O)cc34)Oc3ccc4ccc(O)cc4c32)cc1 [XBisN-6] | A | A (The refractive index was 1.65 or more.) | A (The absorption constant was less than 0.03.) | A (5.0% by mass Amount of dissolution)
CCCc1ccc(C2c3c(ccc4ccc(O)cc34)Oc3ccc4ccc(O)cc4c32)cc1 [XBisN-7] | A | A (The refractive index was 1.65 or more.) | A (The absorption constant was less than 0.03.) | A (5.0% by mass Amount of dissolution)
Oc1ccc(C2c3c(ccc4ccc(O)cc34)Oc3ccc4ccc(O)cc4c32)cc1 [XBisN-8] | A | A (The refractive index was 1.65 or more.) | A (The absorption constant was less than 0.03.) | A (5.0% by mass Amount of dissolution)
Oc1ccc2ccc3c(c2c1)C(c1ccc(C2CCCCC2)cc1)c1c(ccc2ccc(O)cc12)O3 [XBisN-9] | A | A (The refractive index was 1.65 or more.) | A (The absorption constant was less than 0.03.) | A (5.0% by mass Amount of dissolution)
Oc1ccc2c3c(ccc2c1)Oc1ccc2cc(O)ccc2c1C3c1ccc(-c2ccccc2)cc1 [XiN-1] | A | A (The refractive index was 1.65 or more.) | A (The absorption constant was less than 0.03.) | A (5.0% by mass Amount of dissolution)
Oc1ccc2c3c(ccc2c1)Oc1ccc2cc(O)ccc2c1C3c1ccc(-c2ccc(C3c4c(ccc5cc(O)ccc45)Oc4ccc5cc(O)ccc5c43)cc2)cc1 [XiN-3] | A | A (The refractive index was 1.65 or more.) | A (The absorption constant was less than 0.03.) | A (5.0% by mass Amount of dissolution)
